Assay results as given in patent US8937154B2, “Stabilized therapeutic small helical antiviral peptides” (priority 2006, dated 2015).
Where a SMILES comes first, the peptide text is derived from it. Bridges are numbered along the chain shown (N, C = ends). [ ]: non-standard residue; d: D form. R8 = C=CCCCCCC[C@@](C)(N)C(=O)O; S5 = C=CCCC[C@](C)(N)C(=O)O

What was measured:
[1] = biological target: N-terminal CA (N-CA) (Human immunodeficiency virus type 1 group M subtype B, UniProt P04591); conditions: read-out: affinity (Kd) to N-terminal CA (N-CA); cited from earlier work
[2] = test system: HIV-IIIB; test: Viral re-infection assay: infectivity of virions released by treated HIV-1 infected MT-2 cells; format: cell-based
Protocol: The infectivity potential of the virions released by HIV-1 infected MT-2 cells treated with different concentrations of small stapled peptides. […] Control cells were untreated or treated with 1 ug/ml of AMD3100 (CXCR-4 receptor inhibitor). Following overnight incubation the medium was completely removed and replaced with fresh medium. On the fourth day post-infection the supernatants were collected. One aliquot of each sample was mixed 1:1 with a solution of 5% Triton X-100 for p24 quantification, and stored at 4° C., another aliquot was immediately frozen at −80° C. and used to compare the infectivity of the viral particles released by treated cells to the viral particles released by untreated cells. Following p24 quantification by sandwich-ELISA MT-2 cells were infected with viral samples normalized for the p24 content to calculate the TCID50. Following overnight incubation ¾ of the medium containing the inoculum was replaced with fresh medium. On the fourth day post infection supernatants were collected for p24 quantification and the TCID50 was calculated by the Spearman-Karber statistical method.
Therefore, to infect MT-2 cells we used the maximum quantities of supernatants possible.

[3] = test system: HIV-1 IIIB; format: cell-based
Protocol: The inhibitory activity of the constrained peptide described in Example 1 on infection by laboratory-adapted HIV-1 strains was determined as described in Jiang et al. (1991).

[4] = biological target: CTDM184A/W185A (Human immunodeficiency virus type 1 group M subtype B, UniProt P04591, M317A/W316A); test: Isothermal titration calorimetry; set-up: species or system HIV-1; conditions: ITC, 25 mM sodium phosphate buffer (pH 7.3), single-binding model
Protocol: In a typical experiment, the ITC injection syringe was loaded with 625 μM CTDM184A/W185A protein dissolved in the dialysis buffer. […] Typically titrations consisted of 27 injections of 10 μl into the calorimetric cell, with 240-s equilibration between injections. The thermodynamic parameters were obtained and data were analysed using MicroCal Origin 7.0 software.

[5] = Circular dichroism, secondary structure in solution; format: physicochemical
Protocol: We used circular dichroism (CD) to characterize the secondary structure of NYAD-1 and CAI in the uncomplexed state in solution. CD spectra were obtained on a Jasco J-715 Spectropolarimeter (Jasco Inc.) at 20° C. using the standard measurement parameters in Tris-HCl buffer (20 mM Tris, pH 8.0) in the presence of 1-15% (v/v) acetonitrile at a final concentration of 125-500 μM. In all the samples, the final concentrations of peptides and salt were always the same, and the spectra were corrected by subtracting the CD spectra of the appropriate reference solvent. Percent α-helix was calculated from molar ellipticity value at 222 nm.
The CD spectra were measured at 25° C. in 1×PBS in the presence of 1-20% (v/v) acetonitrile at a final concentration of peptide of 100 μM.
We used CD spectroscopy to determine the secondary structure characteristics of the stapled peptide NYAD-36. The corresponding linear peptide, NYAD-41, was used as control.

[6] = test system: HIV-1 IIIB; test: Western blot of p24 and p55 after treatment of HIV-1 IIIB infected MT-2 cells; format: cell-based; conditions: anti-p24 mAb, graded concentrations, vs positive untreated control
Protocol: Control cells were uninfected MT-2 or infected and untreated MT-2. Following overnight incubation the culture supernatant was completely removed and replaced with fresh medium. On the fourth day post-infection cells and virus supernatants were harvested. The supernatants were filtered and ultra-centrifuged through a 20% sucrose cushion for 2 hr at 27,000 rpm with a SW28 rotor to concentrate the viral particles. Viral pellets were slowly re-suspended and lysed. Cells were collected and processed for protein extraction. […] Proteins were then visualized by Western Blot and immuno-detected with HIV-1 anti-p24 gag mAb.
Same amounts of viral and cellular proteins were immunodetected with an anti-p24 mAb.

[7] = biological target: T1, C-terminal CA (C-CA) of capsid (Human immunodeficiency virus type 1 group M subtype B, UniProt P04591); conditions: estimated, read-out: dissociation constant (Kd); cited from earlier work
T1 construct: targeting the C-terminal CA (C-CA) of capsid

Cc1ccc(NC(=O)NCCSCc2ccc(CN(C)C)o2)cc1Cl [CAP-1]
Kd [1]: ~800 µM

CC[C@H](C)[C@H](N)C(=O)N[C@@H](CO)C(=O)N[C@@H](Cc1ccccc1)C(=O)N[C@]1(C)CCCCCC/C=C\CCC[C@@](C)(C(=O)N[C@@H](CCC(=O)O)C(=O)N[C@@H](CO)C(=O)NCC(=O)N[C@@H](CO)C(N)=O)NC(=O)[C@H](Cc2ccc(O)cc2)NC(=O)[C@H](Cc2ccc(O)cc2)NC(=O)[C@H](CC(=O)O)NC(=O)[C@H](CC(C)C)NC(=O)[C@H](CC(C)C)NC(=O)[C@H](CCC(=O)O)NC1=O [NYAD-36] (H-ISF[R8]ELLDYY[S5]ESGS-NH2; staple (Z) 4-11)
viral infectivity of particles released by treated cells ([2]; 6.8 μM): very little to no viral infectivity | viral infectivity of particles released by treated cells ([2]; 13.5 μM): very little to no viral infectivity | infectivity respect to the control ([2]; about 7 μM): 7.7% | IC50 [3]: 1.5 ± 0.17 µM | ΔH [4]: −8.4 (±0.4) Kcal/mol | secondary structure by CD ([5]; 25° C., 1×PBS, 1-20% acetonitrile, 100 μM peptide): α-helical structure | p24 and p55 levels in the cellular preparation [6]: the same decrease was not detected | p24 and p55 levels in the viral preparation (viral lysates) [6]: dose-dependent decrease | solubility: < 100 µM

ITFEDLLDYYGP [CAI]
secondary structure in solution by CD ([5]; 20° C., Tris-HCl buffer pH 8.0, 1-15% acetonitrile): random coil structure | Kd [7]: ~15 µM
